Source: US10752900B2, “Oligonucleotides for modulating gene expression and uses thereof” (BIOGENERA S.P.A., priority 2012, dated 2020)
In the oligonucleotide strings, read from the 5' end, every base follows the letter of its sugar. An asterisk marks phosphorothioate; unmarked linkages are phosphodiester. Other units and linkages are bracketed, terminal groups are in braces. A string of capitals states the bases alone. d = 2'-deoxy (DNA)

Legend:
[1] = test system: rabdomyosarcoma cells (RH30); experiment: Cellular proliferation assay (ATP-Lite), RH30 cells; type: cell-based, human
Method: For the purpose of assessing the gene modulation ability of the oligonucleotides of the present invention, the effect of their administration on cell viability was determined. For this purpose 5×10^3 cells per well were seeded into 96-well cell culture plates (experiments conducted in triplicate) with 100 μl of OPTI-MEM (GIBCO BRL) medium containing 4% FBS and 2 mM of L-glutammine. The PNA oligonucleotides were administered at different concentrations (1 μM-2.5 μM-5 μM-10 μM) in order to observe a dose-effect relationship. As regards all the other oligonucleotides, the concentrations at which they administered are listed in the paragraph: The viability of the treated cells was determined at 48, 72, 96 and 168 hours after treatment. Cell viability was assessed by means of an ATP-Lite assay (Luminescence ATP Detection Assay System, PerkinElmer) and is reported as the ratio between the average signal of the treated wells compared to the average value of the wells of untreated control cells. The cells were processed following the instructions provided with the kit. The assays were performed on the same cell lines used to determine the levels of the MYCN gene messenger and listed in the paragraph: Treatments with Oligonucleotides-QT-PCR. The PNAs having SEQ ID NO: 1-12 were also tested on different cell lines which overexpress MYCN (Kelly, SKNBE2c, RH30, […] 1 and H69). The results are shown in Table 6 and confirm the selectivity and specificity of the inhibition effect of the PNAs on the product of protein translation of the MYCN gene. Chimeric oligonucleotides comprising DNA monomers and LNA monomers and having the MYCN gene as their target were tested in vitro on alveolar rabdomyosarcoma cells (RH30). […] The antisense oligonucleotides designed and synthesized by the Applicant according to the parameters described in the present invention were analyzed in vitro on rabdomyosarcoma cells (RH30).

MYCN gene = experiment: QT-PCR, MYCN mRNA in RH30 cells; type: cell-based, human
Method: For the purpose of assessing the ability of the oligonucleotides of the present invention to modulate the expression of the target genes, their ability to reduce the quantity of messenger RNA was analyzed using the Real-Time PCR technique. For this purpose, use was made of 24-well plates, which were seeded with 5.0×10^4 cells with 0.3 ml of OPTI-MEM (GIBCO BRL) medium, 4% FBS and 2 mM L-glutammine (experiments in triplicate) per well. The cells were incubated for 24 hours at 37° C., in an atmosphere containing 5% CO2 to permit adherence to the base of the wells. Each oligonucleotide analyzed, except for the PNA oligonucleotides, was incubated beforehand with 2 μl of Lipofectamine 2000 (Invitrogen), with 0.3 mL of serum-free OPTI-MEM (GIBCO BRL) medium. For each well, the oligonucleotides were analyzed at the following final concentrations: • the antisense oligonucleotides siRNA and siRNA gapmer (i.e. the oligonucleotides containing one or more monomers of chemically modified nucleic acids at the 3' or 5' end, while in the central portion they have monomers of nucleic acids that have not been modified or have been modified at the level of the phosphodiester bond as a phosphorothioate bond) were used at 200 nM; • the antisense oligonucleotides containing phosphorothioate DNA monomers, the RNA antigene oligonucleotides (agRNA) and the oligonucleotides containing DNA monomers and LNA monomers were used at 10 μM; • the morpholino oligonucleotides were used at a concentration of 1 μM, and • the PNA oligonucleotides were administered at a concentration of 1 μM. The cells were treated with the oligonucleotides, adding FBS up to 4% 6 hours after administration of the same. After 24 hours the total RNA was extracted from each well and purified using the RNeasy Mini Kit (QIAGEN). Assays were performed on 8 cell lines obtained from 5 different human tumours which are correlated with MYCN expression, i.e.: • as a neuroblastoma model use was made of the cell lines Kelly, IMR-32 (where the MYCN gene is amplified and superexpressed) and SKNBE2c and LAN1 (where the MYCN gene is amplified and superexpressed and the p53 gene is mutated); • as a rabdomiosarcoma model use was made of the cell line RH30, where the MYCN gene is amplified and superexpressed; • as a Wilms' tumour model use was made of the cell line WiT49, where the MYCN gene is amplified and superexpressed; • as a retinoblastoma model use was made of the cell line Y79, where the MYCN gene is amplified and superexpressed; and • as a model of small cell lung cancer use was made of the cell line H69 where the MYCN gene is amplified and superexpressed. As a control, use was made of the same cell lines as listed above treated with sterile water instead of oligonucleotides. Each RNA sample was quantified (in duplicate) using a NanoDrop ND-1000 spectrophotometer (NanoDrop Technologies). The first strand of cDNA was produced using the cDNA Synthesis Kit for RT-PCR (Roche). For the cDNA synthesis reaction a total of 1 μg of RNA was used. For the real-time PCR, 10 ng of cDNA in a final volume of 20 μl was used with SYBR Green Master Mix 2× (Applied Biosystems) (3 identical experiments were conducted in triplicate). Two housekeeping genes were used as positive controls: GAPDH and beta-actin (ACTB). The conditions of the QT-PCR reaction were: 10 min at 95° C., 20 sec at 95° C., and 30 sec at 60° C., for 50 cycles. The PNAs having SEQ ID NO: 1-12 were also tested on different cell lines which overexpress MYCN (Kelly, SKNBE2c, RH30, […] 1 and H69). The results are shown in Table 6 and confirm the selectivity and specificity of the inhibition effect of the PNAs on the product of protein translation of the MYCN gene. Chimeric oligonucleotides comprising DNA monomers and LNA monomers and having the MYCN gene as their target were tested in vitro on alveolar rabdomyosarcoma cells (RH30). […]

[2] = Table 9, siRNA and siRNA gapmer used at 200 nM
[3] = Table 9, siRNA and siRNA gapmer used at 200 nM with Lipofectamine 2000
[4] = Table 8, DNA-LNA oligonucleotides used at 10 μM
[5] = Table 8, DNA-LNA oligonucleotides used at 10 μM with Lipofectamine 2000
[6] = Table 9, phosphorothioate DNA antisense used at 10 μM
[7] = Table 9, phosphorothioate DNA antisense used at 10 μM with Lipofectamine 2000

| Substance | Cell Prolif. (%) [1, 2] | mRNA inhibition (%) (MYCN gene; [3]) | also measured |
| --- | --- | --- | --- |
| SEQ ID NO: 26: double-stranded siRNA against MYCN, sense UGAAGAUGAUGAAGAGGAA, antisense SEQ ID NO: 57 (antisense UUCCUCUUCAUCAUCUUCA; listed as RNA, chemistry not given here) | 28% | 82% |  |
| SEQ ID NO: 33: double-stranded chimeric RNA / 2′O-Methyl siRNA against MYCN, sense GAGGAAGAUGAAGAGGAAGTT, antisense SEQ ID NO: 62 (antisense CUUCCUCUUCAUCUUCCUCTT; RNA with some 2'-O-methyl monomers, positions not given here) | 85% | 13% |  |
| SEQ ID NO: 30: double-stranded siRNA against MYCN, sense GGAAGAUGAAGAGGAAGAA, antisense SEQ ID NO: 61 (antisense UUCUUCCUCUUCAUCUUCC; listed as RNA, chemistry not given here) | 30% | 81% |  |
| SEQ ID NO: 24: single-stranded chimeric DNA-LNA oligonucleotide ATGCCGGGCATGATCT against MYCN (DNA at CT, LNA at AG, backbone and methylation of C not given here) |  |  | Cell Prolif. (%) [1, 4]: 75%; mRNA inhibition (%) (MYCN gene; [5]): 23% |
| SEQ ID NO: 36: double-stranded chimeric RNA / arabinoside RNA siRNA against MYCN, sense CAGGAAGAUGAAGAGGAAGAA, antisense SEQ ID NO: 65 (antisense GUUCCUCUUCAUCUUCCUCAA; arabinoside modifications, further chemistry not given here) | 35% | 69% |  |
| SEQ ID NO: 31: phosphorothioate DNA antisense oligonucleotide CGTGGAGCAGCTCGGCAT against MYCN (antisense dC*dG*dT*dG*dG*dA*dG*dC*dA*dG*dC*dT*dC*dG*dG*dC*dA*dT) |  |  | Cell Prolif. (%) [1, 6]: 73%; mRNA inhibition (%) (MYCN gene; [7]): 34% |
| SEQ ID NO: 32: phosphorothioate DNA antisense oligonucleotide CAGGGTGTCCTCTCCGGA against MYCN (antisense dC*dA*dG*dG*dG*dT*dG*dT*dC*dC*dT*dC*dT*dC*dC*dG*dG*dA) |  |  | Cell Prolif. (%) [1, 6]: 65%; mRNA inhibition (%) (MYCN gene; [7]): 45% |
| SEQ ID NO: 28: double-stranded siRNA against MYCN, sense UGAUGAAGAGGAAGAUGAA, antisense SEQ ID NO: 59 (antisense UUCAUCUUCCUCUUCAUCA; listed as RNA, chemistry not given here) | 35% | 78% |  |
| SEQ ID NO: 25: single-stranded chimeric DNA-LNA oligonucleotide ATGCCGGGCATGATCT against MYCN (DNA at AG, LNA at CT, backbone and methylation of C not given here) |  |  | Cell Prolif. (%) [1, 4]: 78%; mRNA inhibition (%) (MYCN gene; [5]): 24% |
| SEQ ID NO: 27: double-stranded siRNA against MYCN, sense GAUGAUGAAGAGGAAGAUG, antisense SEQ ID NO: 58 (antisense CAUCUUCCUCUUCAUCAUC; listed as RNA, chemistry not given here) | 43% | 70% |  |
